# Reference: EP1984353B1, “AURORA KINASE MODULATORS AND METHOD OF USE” (Amgen, Inc, priority 2006, dated 2007)
# Assays:
# [1] = target: T1, AuroraA-TPX2 (Homo sapiens, UniProt O14965); assay: AuroraA-TPX2 Homogeneous Time Resolved Fluorescent (HTRF) kinase assay; format: biochemical; conditions: average; given as class symbols; read-out: AurA/TP X2_ IC50_IP (Avg)
# T1 construct: 20 µL of AuroraA-TPX2 KD GST; GST
# T1 sequence (O14965 133-383 limits assumed): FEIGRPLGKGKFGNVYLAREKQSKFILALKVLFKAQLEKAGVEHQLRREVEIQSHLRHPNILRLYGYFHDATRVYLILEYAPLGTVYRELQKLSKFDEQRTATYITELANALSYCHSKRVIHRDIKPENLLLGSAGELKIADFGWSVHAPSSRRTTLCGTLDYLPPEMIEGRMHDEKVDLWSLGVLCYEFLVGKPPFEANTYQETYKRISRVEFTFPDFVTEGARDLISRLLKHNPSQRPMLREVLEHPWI
# T1 sequence (Q9ULW0 1-43 partner limits assumed): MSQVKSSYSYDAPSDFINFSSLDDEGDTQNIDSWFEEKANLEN
# How it was run: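 HTRF read-out: europium anti-phosphoPLK antibody (0.02 nM) plus streptavidin-APC detect phosphorylated biotin-PLK after EDTA stop and overnight equilibration. Kinase step runs about 120 min with Aurora-A/TPX2, ATP and roughly 1 µM PLK peptide at pH 7.5 HEPES buffer with Mg2+ and DTT.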
# [2] = target: T2, AuroraB (Homo sapiens, UniProt Q96GD4); assay: AuroraB Homogeneous Time Resolved Fluorescent (HTRF) kinase assay; format: biochemical; conditions: average; given as class symbols; read-out: AurB_ _IC50_IP (Avg)
# T2 construct: 20 µL of AuroraB FL His; His
# How it was run: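 HTRF read-out: after EDTA stop and ~60 min with europium anti-phospho-H3 antibody and streptavidin-APC, 655/615 nm ratio reports phosphorylation. Reaction: 400 pM AuroraB FL His, 23 µM ATP (at Km(app)), 0.1 µM biotin-Histone H3 peptide, 50 mM HEPES pH 7.5, MgCl/MnCl, ~90 min.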
# [3] = test system: phosphorylation of Histone H3; assay: HeLa cell 1-hour phospho-histone assay; format: cell-based; conditions: Homo sapiens, HeLa, 1 h, HeLa cells, 1 hour; average; given as class symbols; read-out: pHH3 EC50_IP (Avg)
# How it was run: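 HeLa cells were exposed to serially diluted compounds for 1 hour at 37 °C (0.5% DMSO final), then fixed, permeabilized and immunostained for phospho-histone H3 (Ser10) with Hoechst counterstain. High-content imaging scored the percentage of pHH3-positive cells.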
# T2 sequence (Q96GD4 whole entry): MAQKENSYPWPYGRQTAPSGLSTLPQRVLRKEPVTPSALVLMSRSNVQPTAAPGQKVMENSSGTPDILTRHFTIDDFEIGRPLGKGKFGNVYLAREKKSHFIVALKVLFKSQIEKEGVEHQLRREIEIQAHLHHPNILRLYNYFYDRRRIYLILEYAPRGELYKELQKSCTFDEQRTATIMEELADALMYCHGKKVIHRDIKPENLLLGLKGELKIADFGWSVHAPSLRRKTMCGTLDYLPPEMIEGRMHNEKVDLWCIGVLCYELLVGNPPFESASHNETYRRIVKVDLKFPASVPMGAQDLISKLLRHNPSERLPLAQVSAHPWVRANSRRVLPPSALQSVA
SMILES,IC50 [1] [nM],IC50 [2] [nM],EC50 [3] [nM]
"CCN(CCO)CCCNc1nccc(-c2cccnc2Oc2ccc(Nc3nnc(-c4ccccc4)c4ccccc34)cc2)n1 [compound 349, 2-(ethyl(3-((4-(2-((4-((4-phenyl-1-phthalazinyl)amino)phenyl)oxy)-3-pyridinyl)-2-pyrimidinyl)amino)propyl)amino)ethanol]",100 to 500,≤ 100,100 to 500
"CCN(CCO)CCCNc1nccc(-c2cccnc2Oc2ccc(Nc3nnc(-c4ccccc4)cc3C)cc2)n1 [compound 350, 2-(ethyl(3-((4-(2-((4-((4-methyl-6-phenyl-3-pyridazinyl)amino)phenyl)oxy)-3-pyridinyl)-2-pyrimidinyl)amino)propyl)amino)ethanol]",≤ 100,≤ 100,100 to 500
"Cc1cc(-c2ccccc2)nnc1Nc1ccc(Oc2ncccc2-c2ccncc2)cc1 [compound 417, N-(4-(3,4'-bipyridin-2-yloxy)phenyl)-4-methyl-6-phenyl-3-pyridazinamine]",≤ 100,≤ 100,500 to 2500
"O=S(=O)(O)CCCNc1nccc(-c2cccnc2Oc2ccc(Nc3nnc(-c4ccccc4)c4ccccc34)cc2)n1 [compound 421, 3-((4-(2-((4-((4-phenyl-1-phthalazinyl)amino)phenyl)oxy)-3-pyridinyl)-2-pyrimidinyl)amino)-1-propanesulfonic acid]",100 to 500,100 to 500,500 to 2500
"Cc1cc(-c2ccccc2)nnc1Nc1ccc(Oc2ncccc2-c2ccnc(NCCCN3CCN(C)CC3)n2)cc1 [compound 422, 4-methyl-N-(4-((3-(2-((3-(4-methyl-1-piperazinyl)propyl)amino)-4-pyrimidinyl)-2-pyridinyl)oxy)phenyl)-6-phenyl-3-pyridazinamine]",≤ 100,≤ 100,100 to 500

# The remaining lines, values ahead:
IC50 [1] [nM],IC50 [2] [nM],EC50 [3] [nM],SMILES
≤ 100,≤ 100,≤ 100,"Nc1nccc(-c2cccnc2Oc2ccc(Nc3nnc(-c4cccc(O)c4)c4ccccc34)cc2)n1 [compound 343, 3-(4-((4-((3-(2-amino-4-pyrimidinyl)-2-pyridinyl)oxy)phenyl)amino)-1-phthalazinyl)phenol]"
≤ 100,≤ 100,≤ 100,"Nc1nccc(-c2cccnc2Oc2ccc(Nc3nnc(-c4cccc(CCCO)c4)c4ccccc34)cc2)n1 [compound 344, 3-(3-(4-((4-((3-(2-amino-4-pyrimidinyl)-2-pyridinyl)oxy)phenyl)amino)-1-phthalazinyl)phenyl)-1-propanol]"
≤ 100,≤ 100,100 to 500,"Cc1csc(-c2nnc(Nc3ccc(Oc4ncccc4-c4ccnc(N)c4)cc3)c3ccccc23)n1 [compound 345, 2-((4-((4-(4-methyl-1,3-thiazol-2-yl)-1-phthalazinyl)amino)phenyl)oxy)-3,4'-bipyridin-2'-amine]"
≤ 100,≤ 100,100 to 500,"CC(O)c1cccc(-c2nnc(Nc3ccc(Oc4ncccc4-c4ccnc(N)n4)cc3)c3ccccc23)c1 (stereo not drawn) [compound 346, 1-(3-(4-((4-((3-(2-amino-4-pyrimidinyl)-2-pyridinyl)oxy)phenyl)amino)-1-phthalazinyl)phenyl)ethanol]"
≤ 100,≤ 100,≤ 100,"CCN(CCO)CCCCNc1nccc(-c2cccnc2Oc2ccc(Nc3nnc(-c4ccccc4)c4ccccc34)cc2)n1 [compound 347, 2-(ethyl(4-((4-(2-((4-((4-phenyl-1-phthalazinyl)amino)phenyl)oxy)-3-pyridinyl)-2-pyrimidinyl)amino)butyl)amino)ethanol]"
≤ 100,≤ 100,100 to 500,"CCN(CCO)CCCCNc1nccc(-c2cccnc2Oc2ccc(Nc3nnc(-c4ccccc4)cc3C)cc2)n1 [compound 348, 2-(ethyl(4-((4-(2-((4-((4-methyl-6-phenyl-3-pyridazinyl)amino)phenyl)oxy)-3-pyridinyl)-2-pyrimidinyl)amino)butyl)amino)ethanol]"
